In patent US11739098B2 (BRISTOL-MYERS SQUIBB COMPANY, priority 2017, dated 2023):
pIC50: −log10 of the molar value.

Assays:
Assay type in all cases: cell-based
[1] = target: T1, human TLR7 (Homo sapiens, UniProt Q9NYK1); experiment: TLR7 inhibition reporter assay (HEK-Blue cells, SEAP reporter, gardiquimod stimulation); conditions: HEK-Blue cells overexpressing human TLR7, SEAP reporter, gardiquimod 7.5 μM
T1 construct: host or cells: HEK-Blue cells (HEK293-derived reporter line)
T1 sequence (Q9NYK1 27-1049): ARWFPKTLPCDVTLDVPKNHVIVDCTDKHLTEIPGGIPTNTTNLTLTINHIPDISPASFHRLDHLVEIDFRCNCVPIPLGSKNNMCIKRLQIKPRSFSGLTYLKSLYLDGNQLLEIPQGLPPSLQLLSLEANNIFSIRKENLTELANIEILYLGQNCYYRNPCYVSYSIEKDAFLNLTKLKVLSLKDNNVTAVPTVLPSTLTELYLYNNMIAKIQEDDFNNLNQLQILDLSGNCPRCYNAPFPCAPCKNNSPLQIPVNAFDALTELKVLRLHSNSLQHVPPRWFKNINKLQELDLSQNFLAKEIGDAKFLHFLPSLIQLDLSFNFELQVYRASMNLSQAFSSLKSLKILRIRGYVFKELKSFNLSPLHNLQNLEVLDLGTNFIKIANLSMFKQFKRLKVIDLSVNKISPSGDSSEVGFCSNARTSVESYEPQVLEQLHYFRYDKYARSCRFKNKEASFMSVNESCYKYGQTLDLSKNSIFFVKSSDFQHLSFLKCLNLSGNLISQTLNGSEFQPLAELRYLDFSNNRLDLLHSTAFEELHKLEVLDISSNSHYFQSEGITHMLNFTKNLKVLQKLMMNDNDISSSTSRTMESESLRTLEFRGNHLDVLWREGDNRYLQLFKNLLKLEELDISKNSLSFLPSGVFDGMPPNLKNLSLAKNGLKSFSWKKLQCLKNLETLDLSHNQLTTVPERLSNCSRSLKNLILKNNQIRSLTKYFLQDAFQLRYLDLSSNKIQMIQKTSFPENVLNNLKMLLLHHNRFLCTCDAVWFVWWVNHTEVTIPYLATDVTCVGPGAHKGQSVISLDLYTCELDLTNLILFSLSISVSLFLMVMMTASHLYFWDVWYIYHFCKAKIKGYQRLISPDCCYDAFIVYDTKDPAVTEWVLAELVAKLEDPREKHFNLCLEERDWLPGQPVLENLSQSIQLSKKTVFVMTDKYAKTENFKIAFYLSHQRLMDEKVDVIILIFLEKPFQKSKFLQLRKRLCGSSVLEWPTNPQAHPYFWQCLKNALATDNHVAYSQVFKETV
Outline: (§1)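 Read-out is SEAP activity in HEK-Blue detection medium after 22 h at 37 °C, converted to percent inhibition against agonist-plus-DMSO and reference-inhibitor controls. Cells saw compound (0.05 nM–50 μM, 30 min, room temperature) before gardiquimod 7.5 μM, R848 15.9 μM or ODN2006 5 nM for TLR7, TLR8 and TLR9, respectively.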

[2] = target: T2, human TLR8 (Homo sapiens, UniProt Q9NR97); experiment: TLR8 inhibition reporter assay (HEK-Blue cells, SEAP reporter, R848 stimulation); conditions: HEK-Blue cells overexpressing human TLR8, SEAP reporter, R848 15.9 μM
T2 construct: host or cells: HEK-Blue cells (HEK293-derived reporter line)
T2 sequence (Q9NR97 27-1041): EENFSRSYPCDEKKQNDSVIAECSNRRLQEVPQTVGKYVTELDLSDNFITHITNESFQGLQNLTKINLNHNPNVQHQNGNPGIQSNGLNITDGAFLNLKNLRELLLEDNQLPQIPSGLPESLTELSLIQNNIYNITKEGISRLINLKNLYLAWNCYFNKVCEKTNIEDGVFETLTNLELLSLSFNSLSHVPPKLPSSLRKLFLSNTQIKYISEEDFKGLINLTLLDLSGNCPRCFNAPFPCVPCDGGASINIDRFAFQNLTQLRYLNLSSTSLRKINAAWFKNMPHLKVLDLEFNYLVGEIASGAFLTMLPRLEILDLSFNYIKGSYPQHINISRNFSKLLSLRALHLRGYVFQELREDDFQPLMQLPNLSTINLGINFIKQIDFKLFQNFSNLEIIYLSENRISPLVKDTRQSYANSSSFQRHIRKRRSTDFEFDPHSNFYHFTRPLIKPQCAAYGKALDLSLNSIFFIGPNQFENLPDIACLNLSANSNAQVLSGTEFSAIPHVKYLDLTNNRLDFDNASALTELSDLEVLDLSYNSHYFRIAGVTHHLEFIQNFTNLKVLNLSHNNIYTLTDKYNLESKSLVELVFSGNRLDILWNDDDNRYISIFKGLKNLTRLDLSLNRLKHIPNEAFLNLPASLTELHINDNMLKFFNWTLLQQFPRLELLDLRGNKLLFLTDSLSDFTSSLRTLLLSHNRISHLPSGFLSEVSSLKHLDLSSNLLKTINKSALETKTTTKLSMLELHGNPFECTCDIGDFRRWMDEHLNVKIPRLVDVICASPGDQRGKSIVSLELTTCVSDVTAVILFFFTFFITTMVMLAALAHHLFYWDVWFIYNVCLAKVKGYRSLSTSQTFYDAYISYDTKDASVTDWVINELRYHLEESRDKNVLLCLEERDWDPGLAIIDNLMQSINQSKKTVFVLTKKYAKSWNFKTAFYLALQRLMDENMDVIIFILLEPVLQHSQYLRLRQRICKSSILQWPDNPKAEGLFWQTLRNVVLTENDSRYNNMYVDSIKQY
Outline: as §1

[3] = target: T3, human TLR9 (Homo sapiens, UniProt Q9NR96); experiment: TLR9 inhibition reporter assay (HEK-Blue cells, SEAP reporter, ODN2006 stimulation); conditions: HEK-Blue cells overexpressing human TLR9, SEAP reporter, ODN2006 5 nM
T3 construct: host or cells: HEK-Blue cells (HEK293-derived reporter line)
T3 sequence (Q9NR96 26-1032): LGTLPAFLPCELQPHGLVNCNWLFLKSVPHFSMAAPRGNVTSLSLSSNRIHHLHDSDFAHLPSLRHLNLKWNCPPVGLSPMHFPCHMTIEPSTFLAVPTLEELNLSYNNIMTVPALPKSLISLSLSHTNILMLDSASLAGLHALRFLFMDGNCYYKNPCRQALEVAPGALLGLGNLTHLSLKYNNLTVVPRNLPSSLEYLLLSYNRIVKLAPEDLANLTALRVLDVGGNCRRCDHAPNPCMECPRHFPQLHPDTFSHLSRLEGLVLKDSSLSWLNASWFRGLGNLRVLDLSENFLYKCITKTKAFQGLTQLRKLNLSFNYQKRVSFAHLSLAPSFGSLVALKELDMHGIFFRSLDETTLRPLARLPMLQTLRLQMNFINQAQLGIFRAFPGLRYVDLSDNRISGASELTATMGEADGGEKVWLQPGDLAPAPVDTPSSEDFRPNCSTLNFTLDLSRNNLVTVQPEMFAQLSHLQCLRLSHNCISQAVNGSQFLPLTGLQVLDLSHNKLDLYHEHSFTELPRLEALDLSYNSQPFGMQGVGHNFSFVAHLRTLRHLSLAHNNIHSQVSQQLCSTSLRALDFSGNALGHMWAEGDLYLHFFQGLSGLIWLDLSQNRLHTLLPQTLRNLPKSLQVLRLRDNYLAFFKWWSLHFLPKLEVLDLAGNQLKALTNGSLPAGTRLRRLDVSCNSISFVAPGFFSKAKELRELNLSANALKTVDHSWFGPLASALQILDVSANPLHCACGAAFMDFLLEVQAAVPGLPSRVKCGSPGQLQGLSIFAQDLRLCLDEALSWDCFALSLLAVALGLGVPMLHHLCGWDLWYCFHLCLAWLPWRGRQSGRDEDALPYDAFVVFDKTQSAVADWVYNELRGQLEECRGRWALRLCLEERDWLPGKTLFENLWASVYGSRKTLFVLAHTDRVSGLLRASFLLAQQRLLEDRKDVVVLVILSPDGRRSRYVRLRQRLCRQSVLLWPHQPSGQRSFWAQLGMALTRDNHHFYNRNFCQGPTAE
Outline: as §1

For `OCc1c(-c2ccnc3[nH]ncc23)[nH]c2ccc(C3CCNCC3)cc12` [Example 176, (5-(piperidin-4-yl)-2-(1H-pyrazolo[3,4-b]pyridin-4-yl)-1H-indol-3-yl)methanol], the pIC50 [1] was 4.30 to 6.00, the pIC50 [2] was 4.30 to 6.00 and the pIC50 [3] was 4.30 to 6.00.

With `CNC(=O)c1cn2cc(-c3[nH]c4ccc(C5CCN(C(=O)CN(C)C)CC5)cc4c3C(C)C)cc(C)c2n1` [Example 495, 6-(5-(1-(dimethylglycyl)piperidin-4-yl)-3-isopropyl-1H-indol-2-yl)-N,8-dimethylimidazo[1,2-a] pyridine-2-carboxamide] the pIC50 [1] was over 7.00, the pIC50 [2] was over 7.00 and the pIC50 [3] was 6.00 to 7.00.

Molecule `Cc1cc(-c2[nH]c3ccc(C4CCN(C5COC5)CC4)cc3c2C(C)C)cc2[nH]c(=O)oc12` [Example 708, 5-(3-isopropyl-5-(1-(oxetan-3-yl)piperidin-4-yl)-1H-indol-2-yl)-7-methylbenzo[d]oxazol-2(3H)-one] has a pIC50 [1] of 6.00 to 7.00, a pIC50 [2] of 6.00 to 7.00 and a pIC50 [3] of 4.30 to 6.00.

Work on `CCOc1cc(-c2[nH]c3ccc(C4CCN(CC(=O)N(C)C)CC4)cc3c2C(C)C)cc2ncnn12` [Example 350, 2-(4-(2-(5-ethoxy-[1,2,4]triazolo[1,5-a]pyridin-7-yl)-3-isopropyl-1H-indol-5-yl)piperidin-1-yl)-N,N-dimethylacetamide] yielded a pIC50 [1] of over 7.00, a pIC50 [2] of over 7.00 and a pIC50 [3] of 4.30 to 6.00.

Work on `Cc1c(-c2ccnc3[nH]ncc23)[nH]c2ccc(C3CCN(C4CCN(C(C)C)CC4)CC3)cc12` [Example 833, 4-(5-(1′-isopropyl-[1,4′-bipiperidin]-4-yl)-3-methyl-1H-indol-2-yl)-1H-pyrazolo[3,4-b]pyridine] yielded a pIC50 [1] of over 7.00, a pIC50 [2] of over 7.00 and a pIC50 [3] of over 7.00.

`Cc1nc2cc(-c3[nH]c4ccc(C5CCN(CC(C)(C)O)CC5)cc4c3C(C)C)ccn2n1` [Example 753, 1-(4-(3-isopropyl-2-(2-methyl-[1,2,4]triazolo[1,5-a]pyridin-7-yl)-1H-indol-5-yl)piperidin-1-yl)-2-methylpropan-2-ol] showed a pIC50 [1] of over 7.00, a pIC50 [2] of 6.00 to 7.00 and a pIC50 [3] of 6.00 to 7.00.

With `Cc1n[nH]c2nccc(-c3[nH]c4ccc(C5CCN(Cc6cnc[nH]6)CC5)cc4c3C(C)C)c12` [Example 875, 4-(5-(1-((1H-imidazol-5-yl)methyl)piperidin-4-yl)-3-isopropyl-1H-indol-2-yl)-3-methyl-1H-pyrazolo[3,4-b]pyridine] the pIC50 [1] was 6.00 to 7.00, the pIC50 [2] was over 7.00 and the pIC50 [3] was 6.00 to 7.00.

With `COc1cc(-c2[nH]c3ccc(C4CCNCC4)cc3c2C(C)C)cc2ncnn12` [Example 158, 7-(3-isopropyl-5-(piperidin-4-yl)-1H-indol-2-yl)-5-methoxy-[1,2,4]triazolo[1,5-a]pyridine] the pIC50 [1] was over 7.00, the pIC50 [2] was over 7.00 and the pIC50 [3] was 4.30 to 6.00.

With `CCOc1cc(-c2[nH]c3ccc(C4CCNCC4)cc3c2C(C)C)cc2ncnn12` [Example 157, 5-ethoxy-7-(3-isopropyl-5-(piperidin-4-yl)-1H-indol-2-yl)-[1,2,4]triazolo[1,5-a]pyridine] the pIC50 [1] was over 7.00, the pIC50 [2] was over 7.00 and the pIC50 [3] was 6.00 to 7.00.

Molecule `Cc1cc(-c2[nH]c3ccc(C4CCNCC4)cc3c2C(C)C)cc2cccnc12` [Example 141, 6-(3-isopropyl-5-(piperidin-4-yl)-1H-indol-2-yl)-8-methylquinoline] has a pIC50 [1] of over 7.00, a pIC50 [2] of over 7.00 and a pIC50 [3] of 4.30 to 6.00.

Work on `CC(=O)N1CCC(C(=O)N2CCC(c3ccc4[nH]c(-c5ccnc6[nH]ncc56)c(C(C)C)c4c3)CC2)CC1` [Example 646, 1-(4-(4-(3-isopropyl-2-(1H-pyrazolo[3,4-b]pyridin-4-yl)-1H-indol-5-yl)piperidine-1-carbonyl)piperidin-1-yl)ethan-1-one] yielded a pIC50 [1] of 6.00 to 7.00, a pIC50 [2] of over 7.00 and a pIC50 [3] of 4.30 to 6.00.

Work on `CCc1c[nH]c2nccc(-c3[nH]c4ccc(C5CCNCC5)cc4c3C(C)C)c12` [Example 222, 3-ethyl-4-(3-isopropyl-5-(piperidin-4-yl)-1H-indol-2-yl)-1H-pyrrolo[2,3-b]pyridine] yielded a pIC50 [1] of 6.00 to 7.00, a pIC50 [2] of over 7.00 and a pIC50 [3] of 4.30 to 6.00.

`CC(C)c1c(-c2ccnc3[nH]ncc23)[nH]c2cc(F)c(C3CCN(C4CCN(C(C)C)CC4)CC3)cc12` [Example 830, 4-(6-fluoro-3-isopropyl-5-(1′-isopropyl-[1,4′-bipiperidin]-4-yl)-1H-indol-2-yl)-1H-pyrazolo[3,4-b]pyridine] showed a pIC50 [1] of over 7.00, a pIC50 [2] of over 7.00 and a pIC50 [3] of over 7.00.

`COc1cc(-c2[nH]c3ccc(C4CCN(CC(C)(C)O)CC4)cc3c2C(C)C)cn2ccnc12` [Example 775, 1-(4-(3-isopropyl-2-(8-methoxyimidazo[1,2-a]pyridin-6-yl)-1H-indol-5-yl)piperidin-1-yl)-2-methylpropan-2-ol] showed a pIC50 [1] of over 7.00, a pIC50 [2] of over 7.00 and a pIC50 [3] of 6.00 to 7.00.

Work on `CCc1c(-c2cccc3[nH]ncc23)[nH]c2ccc(C3CCN(CC(=O)NC)CC3)cc12` [Example 388, 2-(4-(3-ethyl-2-(1H-indazol-4-yl)-1H-indol-5-yl)piperidin-1-yl)-N-methylacetamide] yielded a pIC50 [1] of 4.30 to 6.00, a pIC50 [2] of 4.30 to 6.00 and a pIC50 [3] of under 4.30.
